Consider six molecules from patent US5306819A, “Certain aryl a cycloalkyl fused imidazopyrazinols; and new class of GABA brain receptor ligands” (Neurogen Corporation, priority 1992, dated 1994).

One assay concerns GABA receptor.
Experiment: not given
To be noted: Tallman et al., 1978; cited from earlier work.
Take `CN1CCc2cc3c(cc2[C@H]1[C@@H]1OC(=O)c2c1ccc1c2OCO1)OCO3` [(+) bicuculline]: the “Enhancement of benzodiazepine binding by GABA agonists is blocked” value is given as “blocked”. As for `CN1CCc2cc3c(cc2[C@@H]1[C@H]1OC(=O)c2c1ccc1c2OCO1)OCO3` [(-) bicuculline], the “Enhancement of benzodiazepine binding by GABA agonists is blocked” value was “much less active”.

Another assay concerns the target GABAa receptor. Put plainly: assay for GABAa receptor activity: inhibition of 3H-RO15-1788 (3H-Flumazenil) binding to rat cortical tissue. To be noted: 3H-RO15-1788 0.5 nM, 30 min at 4°. How it is done: The pharmaceutical utility of compounds of this invention are indicated by the following assay for GABAa receptor activity.
Assays are carried out as described in Thomas and Tallman (J. Bio. Chem. 156: 9838-9842, J. Neurosci. 3:433-440, 1983). Rat cortical tissue is dissected and homogenized in 25 volumes (w/v) of 0.05M Tris HCl buffer (pH 7.4 at 4° C.). The tissue homogenate is centrifuged in the cold (4°) at 20,000×g for 20'. The supernatant is decanted and the pellet is rehomogenized in the same volume of buffer and again centrifuged at 20,000×g. The supernatant is decanted and the pellet is frozen at -20° C. overnight. The pellet is then thawed and rehomogenized in 25 volumes (original wt/vol) of buffer and the procedure is carried out twice. The pellet is finally resuspended in 50 volumes (w/vol of 0.05M Tris HCl buffer (pH 7.4 at […]).
Incubations contain […] of tissue homogenate, […] of radioligand 0.5 nM (^3 H-RO15-1788 [^3 H-Flumazenil] specific activity 80 Ci/mmol), drug or blocker and buffer to a total volume of […]. Incubations are carried for 30 min at 4° then are rapidly filtered through GFB filters to separate free and bound ligand. Filters are washed twice with fresh 0.05M Tris HCl buffer (pH 7.4 at 4° C.) and counted in a liquid scintillation counter. […] diazepam is added to some tubes to determine nonspecific binding. Data are collected in triplicate determinations, averaged and % inhibition of total specific binding is calculated. Total Specific Binding=Total-Nonspecific. In some cases, the amounts of unlabeled drugs is varied and total displacement curves of binding are carried out. Data are converted to a form for the calculation of IC50 and Hill Coefficient (nH).
As for `COc1ccc(-c2nc3c[nH]c4c(n-3c2=O)CCCCC4)c(F)c1` [Compound 15, 2-(2-Fluoro-4-methoxyphenyl)-cyclohept[b]imidazo[2,1-f]pyrazin-1(5H)-one], the IC50 was found to be 13 nM. That is a double-digit nanomolar value. Same read-out and setting: then `COc1ccc(-c2nc3c[nH]c4c(n-3c2=O)CCCC4)c(F)c1` [Compound 8, 2-(2-Fluoro-4-methoxyphenyl)-imidazo-[1,2-a]-6,7,8,9-tetrahydroquinoxalin-1(5H)-one], with 5.4 nM; and `COc1ccc(-c2nc3c[nH]c4c(n-3c2=O)CCC4)c(F)c1` [Compound 16, 2-(2-Fluoro-4-methoxyphenyl)-cyclopent[b]imidazo[2,1-f]pyrazin-1(5H)-one], with 15 nM.

For the molecule `O=c1c(-c2ccccc2F)nc2c[nH]c3c(n1-2)CCCC3` [Compound 1, 2-(2-fluorophenyl)-imidazo-[1,2-a]-6,7,8,9-tetrahydroquinoxalin-1(5H)-one], the IC50 was determined as 11 nM.

In general, IC50 refers to the concentration that gives 50% inhibition. Read a high IC50 as weaker potency.
